Series [1] concerns K562. In words: Cytotoxicity against human K562 cells up to 50 uM after 72 hrs by resazurin-based fluorimetric assay. The series is classed as functional, cell-based.
The next series has as its system HCT-116. In words: Cytotoxicity against human HCT116 cells up to 50 uM after 72 hrs by resazurin-based fluorimetric assay. The series is classed as functional, cell-based. In general terms: Resazurin is reduced to fluorescent resorufin, in cell work by metabolically active cells.
Series [2] in a line: Drug degradation in DMSO assessed as autoxidation at 4 degC incubated under dark condition for 6 months. The series is classed as physicochemical. As to conditions: 4383 h.
Series [3] has as its target T1, Induced myeloid leukemia cell differentiation protein Mcl-1 (Homo sapiens, UniProt Q07820). As to the kind of experiment: Displacement of fluorescein-labeled BID from His-tagged MCL-1 (unknown origin) at 100 uM after 1 hr by fluorescence polarization assay relative to control.
The target of series [4] is T1, Induced myeloid leukemia cell differentiation protein Mcl-1. As to the kind of experiment: Displacement of fluorescein-labeled BID from His-tagged MCL-1 (unknown origin) after 1 hr by fluorescence polarization assay. Background: In fluorescence polarisation assays a small probe gives low polarisation when free and higher when bound to something large.
Series [5] deals with T2, Bcl-2-like protein 1 (Homo sapiens, UniProt Q07817). As to the kind of experiment: Displacement of fluorescein-labeled BAK from His-tagged BCL-XL (unknown origin) at 100 uM after 1 hr by fluorescence polarization assay relative to control.
T2 sequence (Q07817 whole entry): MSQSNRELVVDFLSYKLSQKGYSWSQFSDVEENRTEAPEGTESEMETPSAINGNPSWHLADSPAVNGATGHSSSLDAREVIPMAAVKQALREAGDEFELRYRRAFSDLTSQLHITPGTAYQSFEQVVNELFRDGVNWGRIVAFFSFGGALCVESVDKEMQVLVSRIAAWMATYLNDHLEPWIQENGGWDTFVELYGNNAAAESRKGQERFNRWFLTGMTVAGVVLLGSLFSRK
In series [6] the target is T2, Bcl-2-like protein 1. In words: Displacement of fluorescein-labeled BAK from His-tagged BCL-XL (unknown origin) after 1 hr by fluorescence polarization assay.
The test system of series [7] is K562. As to the kind of experiment: Cytotoxicity against human K562 cells after 72 hrs by resazurin-based fluorimetric assay. It is filed as functional, cell-based. The following applies: K562, 72 h.
A short description of series [8]: Cytotoxicity against human HCT116 cells after 72 hrs by resazurin-based fluorimetric assay. It is filed as functional, cell-based. As to conditions: HCT-116, 72 h.
A short description of series [9]: Drug degradation assessed as conversion to ferrugineic acid F and ferrugineic acid G at 4 degC incubated under dark condition for 3 to 6 months. The series is classed as physicochemical.
Series [10] in a line: Drug degradation assessed as conversion to ferrugineic acid H and ferrugineic acid I under diffuse daylight condition at 25 degC for 1 month. As to conditions: 730.5 h. The series is classed as physicochemical.
Series [11] can be described thus: Drug degradation assessed as conversion to ferrugineic acid F and ferrugineic acid G under diffuse daylight condition at 25 degC for 1 month. It is filed as physicochemical. The following applies: 730.5 h.
Series [12] is described as follows: Drug degradation assessed as conversion to ferrugineic acid H and ferrugineic acid I at 4 degC incubated under dark condition for 3 to 6 months. It is filed as physicochemical.

Each structure is given as a SMILES string. Active and inactive are the calls of the source. The calls are words filed in the database; no cut-off is given here. Where only a bound is given, the exact number is not on record here.

T1 sequence (Q07820 whole entry): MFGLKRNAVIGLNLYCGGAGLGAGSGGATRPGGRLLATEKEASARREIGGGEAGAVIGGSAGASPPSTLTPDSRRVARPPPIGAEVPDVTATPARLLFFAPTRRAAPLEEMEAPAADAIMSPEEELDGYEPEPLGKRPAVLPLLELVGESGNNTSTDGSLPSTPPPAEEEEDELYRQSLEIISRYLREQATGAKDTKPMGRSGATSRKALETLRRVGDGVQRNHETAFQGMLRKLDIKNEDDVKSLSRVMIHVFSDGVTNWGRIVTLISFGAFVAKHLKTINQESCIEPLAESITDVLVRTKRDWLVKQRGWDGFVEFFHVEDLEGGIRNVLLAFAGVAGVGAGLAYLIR

Turning to `O=C(O)C1=CC(=O)[C@@H]2C[C@H]3[C@H](CCCc4ccc(O)cc4)[C@H]4C=C[C@@H]1[C@@H]2[C@H]43` (relative stereo), the outcome with K562 [1] and in the series with HCT-116 was inactive.
In the case of `O=C(O)[C@@H]1C=C[C@@H]2C[C@H]3[C@H](CCCc4ccc(O)c(O)c4)[C@H]4C=C[C@@H]1[C@@H]2[C@H]43` (relative stereo), the result with K562 [1] and with HCT-116 was inactive. The Stability entry in series [2] is “Stable”. Besides, the results for the inhibition (in series [3]; at Bcl-2-like protein 1 [5]) were 82% and 39%, respectively. For the same compound, the values for the Ki (in series [4]; at Bcl-2-like protein 1 [6]) were 5.2 µM and > 100 µM, respectively.
Take `CCC1=C[C@@H]2CN(C1)Cc1c([nH]c3ccccc13)[C@@](C(=O)OC)(c1cc3c(cc1OC)N(C)[C@H]1[C@@](O)(C(=O)OC)[C@H](OC(C)=O)[C@]4(CC)C=CCN5CC[C@]31[C@@H]54)C2` [VINORELBINE]: the figures for the IC50 (in the series on K562 [7]; in [8]) were 6 nM and 15 nM, respectively.
In the case of `O=C(O)[C@@H]1C=C[C@@H]2C[C@H]3[C@H](CCCCCc4ccc(O)cc4)[C@H]4C=C[C@@H]1[C@@H]2[C@H]43` (relative stereo), the outcome with K562 [1] and with HCT-116 was inactive. Besides, the Stability result in series [9] was “Unstable”; in [2], “Stable”; in series [10], “Unstable”; in [11] it was “Unstable”; in series [12] it was “Unstable”. For the same compound, the values for the inhibition (in series [3]; on Bcl-2-like protein 1 [5]) were 85% and 60%, respectively. The Ki (usually the equilibrium dissociation constant of an inhibitor or competing ligand from its target) in series [4] was 14 µM; on Bcl-2-like protein 1 [6], 19.2 µM.
On to `O=C(O)C1=C[C@H](O)[C@@H]2C[C@H]3[C@H](CCCCCc4ccc(O)cc4)[C@H]4C=C[C@@H]1[C@@H]2[C@H]43` (relative stereo), for which, in series [3], the inhibition (usually how much of the control response was suppressed) was 3%.
In the case of `O=C(O)[C@@H]1C=C[C@@H]2C[C@H]3[C@H](CCCc4ccc(O)cc4)[C@H]4C=C[C@@H]1[C@@H]2[C@H]43` (relative stereo), the outcome in the series with K562 [1] and with HCT-116 was inactive. Moreover, the Stability entry in series [9] is recorded as “Unstable”; in [2] it was “Stable”; in series [10], “Unstable”; in series [11], “Unstable”; in series [12], “Unstable”. The inhibition in series [3] turned out to be 0%; at Bcl-2-like protein 1 [5] it was 22%. The Ki at Bcl-2-like protein 1 [6] was > 100 µM.
As for `O=C(O)[C@@H]1C=C[C@@H]2C[C@H]3[C@H](CCCCCCCc4ccc(O)cc4)[C@H]4C=C[C@@H]1[C@@H]2[C@H]43` (relative stereo), the result in the series with K562 [1] and in the series with HCT-116 was inactive. In addition, the Stability entry in [2] is listed as “Stable”. The inhibition in series [3] worked out at 82%; on Bcl-2-like protein 1 [5], 93%. The results for the Ki (in series [4]; on Bcl-2-like protein 1 [6]) were 13 µM and 12.6 µM, respectively.
For `O=C(O)/C=C/[C@H]1[C@H]2C=C[C@H]3[C@@H]1C[C@H]1[C@H](CCCc4ccc(O)cc4)[C@@H]2[C@@H]31` (relative stereo), the outcome with K562 [1] and in the series with HCT-116 was inactive. In addition, the figures for the inhibition (in series [3]; at Bcl-2-like protein 1 [5]) were 0% and 22%, respectively. For the same compound, on Bcl-2-like protein 1 [6], the Ki is > 100 µM.
Take `O=C(O)[C@@H]1C=C[C@@H]2C[C@H]3[C@H](CC/C=C/Cc4ccc(O)cc4)[C@H]4C=C[C@@H]1[C@@H]2[C@H]43` (relative stereo): the outcome in the series with K562 [1] and in the series on HCT-116 was inactive. The Stability entry in series [2] is reported as “Stable”. Further, the inhibition was 14% in [3] and 20% on Bcl-2-like protein 1 [5].
For the compound `O=C(O)C1=C[C@@H](O)[C@@H]2C[C@H]3[C@H](CCCc4ccc(O)cc4)[C@H]4C=C[C@@H]1[C@@H]2[C@H]43` (relative stereo), the outcome with K562 [1] and with HCT-116 was inactive. The inhibition in series [3] amounted to 0%; at Bcl-2-like protein 1 [5] it was 7%.

These data come from ChEMBL document CHEMBL3297727, “Endiandric acid analogues from Beilschmiedia ferruginea as dual inhibitors of Bcl-xL/Bak and Mcl-1/Bid interactions” (J Nat Prod, 2014).
